Experimental data from patent publication US7211678B2, “Stable crystals of pyrrole compound” (Nippon Shinyaku Co., Ltd., priority 2001, dated 2007).

What was measured:
[1] = as described in WO96/40634; cited from earlier work
[2] = Dry grinding test (planet ball mill, evaluated by powder X-ray spectrum); format: physicochemical; conditions: 1 g, 2480 rpm for 5 hours
Method: Type-I crystal (1 g) and type-II crystal (1 g) were respectively charged in a planet ball mill (manufactured by Fritsch Japan) and then grinded at 2480 rpm for 5 hours. The grinded crystals were evaluated by a powder X-ray spectrum.

Row | SMILES | urinary bladder capacity increasing activity [1] | crystal transition after dry grinding [2]
1 | Cc1c(-c2ccccc2F)[nH]c(N)c1C#N [the pyrrole compound, 2-amino-3-cyano-4-methyl-5-(2-fluorophenyl)pyrrole] | excellent urinary bladder capacity increasing activity | –
2 | Cc1c(-c2ccccc2F)[nH]c(N)c1C#N [type-I crystal, 2-amino-3-cyano-4-methyl-5-(2-fluorophenyl)pyrrole] | – | No crystal transition was recognized
3 | Cc1c(-c2ccccc2F)[nH]c(N)c1C#N [type-II crystal, 2-amino-3-cyano-4-methyl-5-(2-fluorophenyl)pyrrole, reference compound] | – | transition of crystals into type-I crystal was recognized
